Experimental data published in US20060052346A1, “Nucleoside phosphonate derivatives useful in the treatment of HIV infections” (priority 2004, published 2006).
Like-named read-outs stand apart in the source and are kept apart here.

System: HIV-1 (NL4-3)
Experiment: Plaque reduction assay (drug susceptibility) in HT4-6C cells infected with HIV-1 NL4-3
Assay type: cell-based
Conditions: for IC50: Human immunodeficiency virus 1, NL43, 72 h
Description: Measurement of Inhibition Effect Against Human Immunodeficiency Virus (HIV)
The compounds of formula 1 protect cells from the cytopathic effects of HIV infection.
Cells. The T-lymphoblastoid cell line CEM was used in this study to propagate HIV. The cells were maintained in RPMI 1640 growth medium supplemented with 10% fetal bovine serum plus antibiotics. The CD4-expressing cell line used for HIV plaque assays, HT4-6C, was made by transforming HeLa cells with the human CD4 gene as described in Chesebro and Wehrly, J. Virology, 62(10), 3779-3788 (1988). These cells were grown in Dulbecco modified eagle medium (DMEM) containing 10% fetal bovine serum plus antibiotics.
Virus propagation. The laboratory strain of HIV-1 (NL4-3) was grown in CEM cells. Virus stocks were prepared from cleared lysates of concentrated infected cells. At peak cytopathic effect (generally 5 days post-infection) culture supernatants were harvested and stored at −80° C. Viral infectivity titers were determined in threefold endpoint dilution assays conducted in CEM cells (six wells per dilution). The 50% tissue culture infective dose (TCID50) was calculated using the Reed and Muench equation.
Plaque titration using HT4-6C. Cells are seeded into 24-well multiwells at 5×10^4 cells per well and incubated overnight at 37° C. in growth medium (DMEM containing 10% fetal bovine serum plus antibiotics). Monolayers were infected with 10-fold dilutions of cell-free NL4-3 virus in 0.2 ml of DMEM and were incubated for 1 h at 37° C. to allow virus adsorption. Following this, 0.8 ml of DMEM containing 5% fetal bovine serum plus antibiotics was added to each well, and the cultures were incubated at 37° C. for 2 to 3 days. The monolayers were fixed with a 10% formaldehyde solution in phosphate-buffered saline and stained with 0.25% crystal violet in order to visualize virus plaques. Individual foci of multinucleated giant cells (plaques) are obvious when this staining procedure was used. Virus titers were evaluated from plaque numbers and were expressed as PFU per milliliter.
Drug susceptibility assays. Plaque reduction assays were performed by infecting monolayers of HT4-6C cells with 100 to 300 PFU of virus per well in 24-well microdilution plates as described above. Half-log concentrations of inhibitor were added to the culture medium (DMEM containing 5% fetal bovine serum plus antibiotics), and cultures were incubated for 3 days at 37° C. prior to fixation and staining as described above. ID50s were derived from plots of percentage of plaque reduction versus inhibitor concentration. See Larder et al., Antimicrob Agents Chemother, 34(3), 436-41 (March 1990).

[1] = plaque reduction, HT4-6C cell monolayers, 100 to 300 PFU of virus per well, 3 days at 37° C., read-out: ID50 (the source's name)
[2] = plaque reduction, HT4-6C cell monolayers, 100 to 300 PFU of virus per well, 3 days at 37° C.

Q: How did the IC50 [1] turn out when `Nc1nc(O)c2ncn(CC3(OCP(=O)(O)O)CC3)c2n1` [Compound 5, ({1-[(2-amino-6-hydroxy-9H-purin-9-yl)methyl]cyclopropyl}oxy)methylphosphonic acid] was run?
A: ~100 µM

Q: What about the “ID25” value [2] of the same compound?
A: <10 µM

Q: Which results are given for `CC(C)(C)C(=O)OCOP(=O)(COC1(Cn2cnc3c(O)nc(N)nc32)CC1)OCOC(=O)C(C)(C)C` [Compound 6, 3-[({1-[(2-amino-6-hydroxy-9H-purin-9-yl)methyl]cyclopropyl}oxy)methyl]-8,8-dimethyl-3,7-dioxo-2,4,6-trioxa-3λ^5-phosphanon-1-yl pivalate]?
A: IC50 [1]: < 10 µM; ID25 [2]: <0.1 µM

Q: Which IC50 [1] does the source give for `Nc1ncc2ncn(CC3(OCP(=O)(O)O)CC3)c2n1` [Compound 9, ({1-[(2-amino-9H-purin-9-yl)methyl]cyclopropyl}oxy)methylphosphonic acid] here?
A: > 100 µM

Q: And the “ID25” value [2]?
A: <10 µM

Q: `CC(C)(C)C(=O)OCOP(=O)(COC1(Cn2cnc3cnc(N)nc32)CC1)OCOC(=O)C(C)(C)C` [Compound 10, 3-[({1-[(2-amino-9H-purin-9-yl)methyl]cyclopropyl}oxy)methyl]-8,8-dimethyl-3,7-dioxo-2,4,6-trioxa-3λ^5-phosphanon-1-yl pivalate] was tested. Which IC50 (read-out: ID50 (μM)) did it give?
A: < 10 µM

Q: What about the “ID25” value [2] of the same compound?
A: <0.1 µM

Q: Which results are given for `CC1CC1(Cn1cnc2cnc(N)nc21)OCP(=O)(O)O` (centres unmarked) [Compound 98, ({1-[(2-amino-9H-purin-9-yl)methyl]-2-methylcyclopropyl}oxy)methylphosphonic acid]?
A: IC50 [1]: > 100 µM; ID25 [2]: <200 µM

Q: For `CC1CC1(Cn1cnc2c(N)ncnc21)OCP(=O)(O)O` (centres unmarked) [Compound 103, ({1-[(6-amino-9H-purin-9-yl)methyl]-2-methylcyclopropyl}oxy)methylphosphonic acid], which IC50 [1] is on record?
A: > 100 µM

Q: What about the “ID25” value [2] of the same compound?
A: <10 µM

Q: Which IC50 [1] does the source give for `CC1CC1(Cn1cnc2cnc(N)nc21)OCP(=O)(OCOC(=O)C(C)(C)C)OCOC(=O)C(C)(C)C` (centres unmarked) [Compound 106, 3-[({1-[(2-amino-9H-purin-9-yl)methyl]-2-methylcyclopropyl}oxy)methyl]-8,8-dimethyl-3,7-dioxo-2,4,6-trioxa-3λ^5-phosphanon-1-yl pivalate] here?
A: < 100 µM

Q: And the “ID25” value [2]?
A: <1.0 µM
